Residues, ends and D or L forms follow the SMILES beside them. *: point of attachment. Cbz = O=C(OCc1ccccc1)*
Key:
phospho-EGFR (Y845) = experiment: immunoblot of phospho-EGFR (Y845) in siCD44-transfected MDA-MB-231 cells; format: cell-based, human; details: siCD44 MDA-MB-231 cells in suspension, inhibitor for 6 hours
Procedure: FIG. 23. CD44 promotes EGFR stability and activity in clusters. A. Immunoblots of phospho-EGFR (Y845), EGFR and actin of TN1-PDX tumor cells in clustering assays upon CD44 knockdown for 36 hours. B. Real-time PCR showing no significant (NS) effect of siCD44 on EGFR mRNA levels. Immunoblots of phospho-EGFR (Y845) and total EGFR of MDA-MB-231 cells in suspension for 48 hours after transfected with scramble control (con), siCD44, or siEGFR. D. Immunoblots of phospho-EGFR (Y845) in MDA-MB-231 cells, transfected with siCD44, either adherent (adh) or in suspension in the presence of proteasome inhibitor (MG-132) or endocytosis inhibitor (sucrose) for 6 hours. E. Immunoprecipitation of CD44-FLAG and detection of EGFR by immunoblot.
Western blot. Cells were lysed by RIPA buffer supplemented with Amresco protease inhibitor cocktail (1:100 diluted) and centrifuged for 10 mins at 4 degrees and 10,000 RPM. Protein concentration was measured and 20 ug of protein was loaded for each sample. Antibodies used: EGFR, p-EGFR, b-actin (abcam).

TN1 PDX tumor cells = experiment: ex vivo aggregation (clustering) assay of dissociated PDX tumor cells, IncuCyte time-lapse imaging; format: cell-based, human
Procedure: Cell clustering assay. Freshly dissociated primary tumor cells in single cell suspension were seeded in collagen type I-coated 96-well plates. The plates were put into the IncuCyte live cell imaging system (Essen BioScience), and live images were taken every 2-4 h for up to one week. The cluster number and size were analyzed by Incucyte ZOOM software (Essen BioScience). In specific experiments, primary tumor cells might be sorted based on the expression of CD44 prior to seeding. In other experiments, seeded tumor cells might be transfected with siRNAs (100 nM) or treated with various inhibitors during the clustering assays. For cell viability analysis during clustering, the IncuCyte Cytotox Red reagent (Essen BioScience) was added to the medium according to the manufacturer's instructions.

MDA-MB-231 cells [1] = experiment: MDA-MB-231 cell aggregation in suspension on Poly-HEMA-coated plates; format: cell-based, human; details: 4-MU 0.4 mM/L pre-treatment for 48 h; aggregation at 1 h
Procedure: Hyaluronan inhibition. Two complementary approaches were utilized to inhibit hyaluronan, the known CD44 ligand, in the two models. First, for the TN PDX model, dissociated cells were treated with hyaluronan antagonist (o-HA, HA oligomers) at 100 μg/mL during the 72-hour aggregation assays. For MDA-MB-231 cells, the hyaluronic acid synthase inhibitor 4-methylumbelliferone (4-MU, 0.4 mM/L) was added to the adherent culture. After 48 h of treatment, the cells were trypsinized and transferred to a poly-hydroxyethyl methacrylate (Poly-HEMA, Sigma-Aldrich) coated plate, and the images were taken at the indicated times by Leica microscopy.
Cell clustering assay. Freshly dissociated primary tumor cells in single cell suspension were seeded in collagen type I-coated 96-well plates. The plates were put into the IncuCyte live cell imaging system (Essen BioScience), and live images were taken every 2-4 h for up to one week. The cluster number and size were analyzed by Incucyte ZOOM software (Essen BioScience). In specific experiments, primary tumor cells might be sorted based on the expression of CD44 prior to seeding. In other experiments, seeded tumor cells might be transfected with siRNAs (100 nM) or treated with various inhibitors during the clustering assays. […]

MDA-MB-231 cells [2] = experiment: orthotopic breast tumor model: primary tumor, spontaneous lung metastasis and blood CTC clusters; format: in vivo, mice
Source text: FIG. 21. Inhibition of EGFR blocks spontaneous metastasis. A. Timeline of treatment after palpable tumor formation in PDX model TN1. B. Bioluminescent images of tumor growth before or 1, or 17 days after treatment. C. Primary tumor signal over time, ns. D. Tumor images after 2 weeks of treatment. E. Bioluminescent images of lungs after treatment. F. Measured signal of lungs. p=0.09. G. Timeline of treatment of mice with Erlotinib or vehicle for FIGS. 19H-L. H. Bioluminescence images of orthotopically-implanted breast tumors treated with vehicle or 50 mg/kg Erlotinib (daily orally) for 4 weeks. I. BLI signal (total flux) histograms of the lungs from vehicle and Erlotinib-treated breast tumor bearing mice as shown in H. J. Bioluminescence images of dissected lungs from tumor bearing mice treated with vehicle or Erlotinib in C. K. Fluorescence images of dissected lungs from tumor bearing mice treated with vehicle or Erlotinib in C. L. Representative mix-color tumor cell clusters in blood from tumor bearing mice treated with vehicle or Erlotinib in C.
Inhibition of EGFR successfully blocks clustering and lung colonization. Using flow cytometry, we found enriched EGFR expression in clustered cells in the blood of breast cancer patients (FIG. 25). […] Furthermore, tdTomato- and eGFP-labeled MDA-MB-231 cells were implanted orthotopically together into the mammary fat pads of mice for examination of tumor cell cluster-mediated polyclonal, spontaneous lung metastasis.
Mouse models and tumor dissociation. 8-10 weeks old NOD/SCIDmice were used for PDXs and human MDA-MB-231 cell-based xenograft studies. The triple negative PDXs and MDA-MB-231 cells were lentivirally labeled by eGFP, tdTomato, Luc2-eGFP (L2G), or Luc2-tdTomato (L2T) using the lentiviruses and labeling protocol as described previously^3. PDX tumors were harvested and dissociated either with Collagenase III (TN1 model) or Liberase TH and TM research grade (TN2 model and lung tissues). Briefly, tumors were minced and incubated for 2-4 h at 37° C. with Collagenase III (Wortington Biomedical) or Liberase TH and TM (Roche) and 100 Kunitz U of DNase I (Sigma) in 20 mL of RPMI medium with 20 mM Hepes buffer. Single-cell suspensions were filtered through 40-μm nylon cell strainers and washed with Hanks' balanced saline solution (HBSS; Sigma) containing 2% heat-inactivated fetal bovine serum (FBS). Red blood cells were lysed with ACK lysis buffer, and dissociated bulk tumor cells were either cultured or stained with various antibodies in HBSS/2% FBS for further flow analysis or sorting on a BD FacsAria (BD Biosciences). […]
Bioluminescence imaging. […] Signals are presented as total photon flux and analyzed using Living Image 3.0 software (Caliper Life Sciences).

[3] = Erlotinib 50 mg/kg daily orally for 4 weeks

CC(C)C[C@@H](C=O)NC(=O)[C@H](CC(C)C)NC(=O)[C@H](CC(C)C)NC(=O)OCc1ccccc1 [MG-132] (Cbz-Leu-Leu-Leu-aldehyde)
p-EGFR levels reduced by CD44 knockdown (phospho-EGFR (Y845)): rescued

CCn1c(=O)c(-c2ccc(-c3cncs3)cc2Cl)cc2cnc(Nc3ccc(N4CCN(C)CC4)cc3)nc21 [FRAX597]
ex vivo aggregation of TN1 PDX tumor cells (cluster size and number) (TN1 PDX tumor cells; FRAX597 500 nM for 72 hours): partially blocked the ex vivo aggregation

Cc1cc(=O)oc2cc(O)ccc12 [4-MU, 4-methylumbelliferone]
aggregation of MDA-MB-231 cells in suspension (MDA-MB-231 cells [1]): did not significantly alter the aggregation

OC[C@H]1O[C@@](CO)(O[C@H]2O[C@H](CO)[C@@H](O)[C@H](O)[C@H]2O)[C@@H](O)[C@@H]1O [sucrose]
p-EGFR levels reduced by CD44 knockdown (phospho-EGFR (Y845)): rescued

C#Cc1cccc(Nc2ncnc3cc(OCCOC)c(OCCOC)cc23)c1 [Erlotinib]
primary tumor formation (MDA-MB-231 cells [2]; [3]): no effects on primary tumor formation
spontaneous lung metastasis (MDA-MB-231 cells [2]; [3]): significantly and dramatically reduced the spontaneous lung metastasis
CTC clusters in dual colors in the blood (MDA-MB-231 cells [2]; Erlotinib vs vehicle): only detectable in the blood collected from the vehicle-treated mice
dual color metastasis colonies in the lungs (MDA-MB-231 cells [2]; Erlotinib vs vehicle): absent but with reduced single-colored colonies
PDX-derived tumor cell cluster formation, counts and size (TN1 PDX tumor cells; incubation with Erlotinib (1-10 μM), 72 hours): dramatically reduced PDX-derived tumor cell cluster formation, both the counts and size

Source: patent publication US20220002429A1, “TUMOR CELL AGGREGATION INHIBITORS' FOR TREATING CANCER” (Northwestern University, priority 2018, published 2022)
